Experimental data taken from patent US11124516B2, “Pyrrolo[1,2-A]pyrimidinyl carboxamide compounds and their use in the treatment of medical disorders” (Bial—Biotech Investments, Inc., priority 2016, dated 2021).
≈ marks a conversion by molar mass, not a printed value.

How the values were obtained:
[1] = Compound solubility in water; assay type: physicochemical
[2] = target: T1, glucocerebrosidase (Gcase) (Homo sapiens, UniProt P04062); experiment: Glucocerebrosidase (Gcase) activation assay, 4-methylumbelliferyl-beta-D-glucopyranoside substrate, fluorescence; assay type: biochemical; conditions: 10 nM GCase, 100 nM saposin C; for Percent Gcase Activation 0.1 μM Test Compound: test compound at 0.1 μM; for Percent Gcase Activation 0.1 μM Test Compound / Percent Gcase Activation 1 μM Test Compound: pH 4.7; for Percent Gcase Activation 1 μM Test Compound: test compound at 1.0 μM; for activation at 0.1 µM / activation at 1 µM: 0.25 h; for activation at 0.1 µM: pH 4.7, test compound at 0.1 μM, read-out: Percent Gcase Activation 0.1 μM Test Compound; for activation at 1 µM: pH 4.7, test compound at 1.0 μM, read-out: Percent Gcase Activation 1 μM Test Compound
T1 sequence (P04062 40-536): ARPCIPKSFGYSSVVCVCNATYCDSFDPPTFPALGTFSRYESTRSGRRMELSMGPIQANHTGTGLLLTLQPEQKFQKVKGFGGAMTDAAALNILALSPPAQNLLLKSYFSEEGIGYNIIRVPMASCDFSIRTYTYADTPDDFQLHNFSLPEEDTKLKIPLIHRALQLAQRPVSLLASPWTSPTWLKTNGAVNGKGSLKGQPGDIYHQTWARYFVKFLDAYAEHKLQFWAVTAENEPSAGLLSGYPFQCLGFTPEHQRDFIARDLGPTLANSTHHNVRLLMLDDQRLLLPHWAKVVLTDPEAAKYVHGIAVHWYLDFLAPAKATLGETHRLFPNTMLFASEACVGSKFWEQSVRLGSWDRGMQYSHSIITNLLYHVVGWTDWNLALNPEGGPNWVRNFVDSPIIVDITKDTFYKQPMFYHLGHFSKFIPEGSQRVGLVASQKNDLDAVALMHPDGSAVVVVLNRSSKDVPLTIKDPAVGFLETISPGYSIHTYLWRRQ
Method in brief: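 10 nM GCase with 100 nM saposin C in Triton/phosphatidylserine micelles (citrate-phosphate, pH 4.7), pre-incubated 30 min at room temperature with compound, then 2 mM 4-methylumbelliferyl-β-D-glucoside stock mixed 1:1; 15 min reaction, stopped with glycine pH 12.5, fluorescence at 365/440 nm. Activation scored at 1.0 and 0.1 μM; 8-point curves from 5 μM top.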

Compound	Compound Solubility in Water [1] [µg/mL]	Percent Gcase Activation 1 μM Test Compound [2]	solubility [1] [µg/mL]	activation at 0.1 µM [2] [%]	activation at 1 µM [2] [%]	Percent Gcase Activation 0.1 μM Test Compound [2]
Cc1cc(C)n2ccc(C(=O)NC(C)c3cccc4ccccc34)c2n1 (stereo not drawn) [IV-26]	0.2	+++ (Gcase activation greater than 60%)				** (Gcase activation in the range of 10% up to 20%)
Cc1cc(C)n2ccc(C(=O)N[C@@H](C)c3cccc(Cl)c3)c2n1 [IV-28]			0.7 (≈ 2.14 µM)	10 to 20	> 60	
Cc1ccc([C@H](C)NC(=O)c2ccn3c(C)cc(C)nc23)cc1 [IV-30]			2.6 (≈ 8.46 µM)	10 to 20	> 60	
Cc1cc(C)n2ccc(C(=O)NC(C)c3ccc4ccccc4c3)c2n1 (stereo not drawn) [IV-31]			0.2 (≈ 0.582 µM)	> 20	> 60	
COc1cccc([C@@H](C)NC(=O)c2ccn3c(C)cc(C)nc23)c1 [IV-32]			7.8 (≈ 24.1 µM)	10 to 20	> 60	
Cc1cccc(C2CC2C(C)NC(=O)c2ccn3c(C)cc(C)nc23)c1 (stereo not drawn) [IV-42]			1.1 (≈ 3.17 µM)	> 20	> 60	
Cc1cc(C)n2ccc(C(=O)NC(C)c3ccc4c(c3)OCO4)c2n1 (stereo not drawn) [IV-45]			5.7 (≈ 16.9 µM)	< 10	30 to 60	
Cc1cc(C)n2ccc(C(=O)N[C@@H](C)c3ccc(Cl)cc3)c2n1 [IV-46]			0.4 (≈ 1.22 µM)	> 20	> 60	
Cc1cc(C)n2ccc(C(=O)NC(C)(C)c3cccc4ccccc34)c2n1 [IV-48]			0.6 (≈ 1.68 µM)	> 20	> 60	
Cc1cc(C)n2ccc(C(=O)NC(C)c3cn(C)c4ccccc34)c2n1 (stereo not drawn) [IV-49]			2.1 (≈ 6.06 µM)	10 to 20	> 60	
CCOc1ccc(C(CC)NC(=O)c2ccn3c(C)cc(C)nc23)cc1F (stereo not drawn) [IV-51]			0.3 (≈ 0.812 µM)	> 20	> 60	
Cc1cc(C)n2ccc(C(=O)NC(CC(C)C)c3cccnc3)c2n1 (stereo not drawn) [IV-52]			17.3 (≈ 51.4 µM)	< 10	30 to 60	
Cc1cc(C)n2ccc(C(=O)NC(C)c3cccc4c3OCCCO4)c2n1 (stereo not drawn) [IV-53]			5.1 (≈ 14 µM)	10 to 20	> 60	
CCC(NC(=O)c1ccn2c(C)cc(C)nc12)c1cccc(C)n1 (stereo not drawn) [IV-55]			17.6 (≈ 54.6 µM)	< 10	< 30	
CCC(NC(=O)c1ccn2c(C)cc(C)nc12)c1ccc(F)cc1 (stereo not drawn) [IV-56]			2 (≈ 6.15 µM)	> 20	> 60	
CCC(NC(=O)c1ccn2c(C)cc(C)nc12)c1ccc(Cl)cc1 (stereo not drawn) [IV-59]			0.8 (≈ 2.34 µM)	> 20	> 60	
CCC(NC(=O)c1ccn2c(C)cc(C)nc12)c1ccc2c(c1)OCCO2 (stereo not drawn) [IV-62]			1.1 (≈ 3.01 µM)	10 to 20	> 60	
Cc1cc(C)n2ccc(C(=O)NC(C)c3nc4c(s3)CCCC4)c2n1 (stereo not drawn) [IV-64]			4.9 (≈ 13.8 µM)	10 to 20	> 60	
Cc1cc(C)n2ccc(C(=O)NC(CC(C)C)c3ccccc3)c2n1 (stereo not drawn) [IV-66]			1 (≈ 2.98 µM)	> 20	> 60	
Cc1cc(C)n2ccc(C(=O)NC(C)C3(c4ccccc4)CCCC3)c2n1 (stereo not drawn) [IV-73]			1.5 (≈ 4.15 µM)	> 20	> 60	
Cc1cc(C)n2ccc(C(=O)NC(C)c3ccc4c(c3)CC(C)O4)c2n1 (stereo not drawn) [IV-79]			2.6 (≈ 7.44 µM)	> 20	> 60	

Further lines, with some results ahead:

Compound Solubility in Water [1] [µg/mL]	Percent Gcase Activation 1 μM Test Compound [2]	solubility [1] [µg/mL]	activation at 0.1 µM [2] [%]	activation at 1 µM [2] [%]	Compound	Percent Gcase Activation 0.1 μM Test Compound [2]
		3 (≈ 9.28 µM)	> 20	> 60	COc1ccccc1[C@H](C)NC(=O)c1ccn2c(C)cc(C)nc12 [IV-27]	
		2.3 (≈ 7.11 µM)	10 to 20	> 60	COc1ccccc1[C@@H](C)NC(=O)c1ccn2c(C)cc(C)nc12 [IV-29]	
		9.4 (≈ 29.1 µM)	10 to 20	> 60	COc1cccc([C@H](C)NC(=O)c2ccn3c(C)cc(C)nc23)c1 [IV-33]	
		0.8 (≈ 2.17 µM)	10 to 20	> 60	Cc1cc(C)n2ccc(C(=O)NC(C)(c3ccccc3)c3ccccc3)c2n1 [IV-39]	
	+++ (Gcase activation greater than 60%)	1.5 (≈ 4.39 µM)			Cc1cc(C)n2ccc(C(=O)NC(C)(C)c3cccc(Cl)c3)c2n1 [IV-40]	** (Gcase activation in the range of 10% up to 20%)
		0.5 (≈ 1.44 µM)	> 20	> 60	Cc1cc(C)n2ccc(C(=O)NC(CC3CCC3)c3ccccc3)c2n1 (stereo not drawn) [IV-41]	
		2 (≈ 6.22 µM)	> 20	> 60	CCc1ccc(C(C)NC(=O)c2ccn3c(C)cc(C)nc23)cc1 (stereo not drawn) [IV-44]	
0.7	+++ (Gcase activation greater than 60%)				Cc1cc(C)n2ccc(C(=O)NC(C)c3cccc4ccccc34)c2n1 (stereo not drawn) [IV-47]	*** (greater than 20% Gcase activation)
		24.7 (≈ 80.1 µM)	< 10	30 to 60	CCC(NC(=O)c1ccn2c(C)cc(C)nc12)c1cccnc1 (stereo not drawn) [IV-50]	
		23.2 (≈ 72 µM)	< 10	< 30	CCC(NC(=O)c1ccn2c(C)cc(C)nc12)c1cc(C)ccn1 (stereo not drawn) [IV-54]	
		18.5 (≈ 54.5 µM)	< 10	30 to 60	CCC(NC(=O)c1ccn2c(C)cc(C)nc12)c1nc(C2CC2)no1 (stereo not drawn) [IV-58]	
		1.9 (≈ 5.57 µM)	> 20	> 60	COc1ccc(C(C)NC(=O)c2ccn3c(C)cc(C)nc23)cc1F (stereo not drawn) [IV-61]	
		2.1 (≈ 6.22 µM)	> 20	> 60	CCOc1ccccc1C(C)NC(=O)c1ccn2c(C)cc(C)nc12 (stereo not drawn) [IV-78]	
